One assay concerns the target human PTPN2 (1-387) (Homo sapiens (Human), UniProt P17706). The experiment in a line: Human PTPN2 Biochemical Assay. The conditions noted are these: DiFMUP substrate. As for the experimental part: Human PTPN2 Biochemical Assay
Test compounds were dissolved in DMSO, and 10-point serial 3-fold dilution series in DMSO were prepared in Echo Qualified 384-well Polypropylene Microplates (Labcyte, San Jose, CA) (top concentration 50 µM). Assay plates (384-well low volume black plates; Corning #3820, Corning, NY) were prepared by dispensing 50 nL of test compound, and DMSO (for high and low controls) by ECHO acoustic dispenser (Labcyte, San Jose CA). This was followed by addition of 5 μL of 0.2 nM human PTPN2 (1-387) solution (prepared in the assay buffer, 50 mM Tris pH 7.4, 150 mM NaCl, 0.01% Tween20, 0.5 mM dithiothreitol) to all wells except the low control. 5 μl of assay buffer was added into the low control, then the plate was incubated for 30 minutes at room temperature. Subsequently, 5 μl of 100 µM DiFMUP (6,8-difluoro-4-methylumbelliferyl phosphate) solution (prepared in assay buffer from 10 mM stock in DMSO) was added to the assay plate and incubated for 1 hour at room temperature. For detection, assay plates were read on SpectraMax Microplate Reader (Molecular Devices), with Excitation wavelength=360 nm and Emission wavelength=460 nm. Test compound effects were normalized to the window defined by the controls, DMSO/buffer, and DMSO/50 pM human PTPN2. Calculated % effects were fit using a 4-parameter algorithm, and EC50 was reported.

The target of the next assay is human PTPN1 (1-435) (Homo sapiens (Human), UniProt P18031). The experiment in a line: Human PTPN1 Biochemical Assay. Conditions: DiFMUP substrate, read-out: PTP1B IC50. As to the method: Human PTPN1 Biochemical Assay
Chain of human PTPN1 (1-435) (P18031 whole entry): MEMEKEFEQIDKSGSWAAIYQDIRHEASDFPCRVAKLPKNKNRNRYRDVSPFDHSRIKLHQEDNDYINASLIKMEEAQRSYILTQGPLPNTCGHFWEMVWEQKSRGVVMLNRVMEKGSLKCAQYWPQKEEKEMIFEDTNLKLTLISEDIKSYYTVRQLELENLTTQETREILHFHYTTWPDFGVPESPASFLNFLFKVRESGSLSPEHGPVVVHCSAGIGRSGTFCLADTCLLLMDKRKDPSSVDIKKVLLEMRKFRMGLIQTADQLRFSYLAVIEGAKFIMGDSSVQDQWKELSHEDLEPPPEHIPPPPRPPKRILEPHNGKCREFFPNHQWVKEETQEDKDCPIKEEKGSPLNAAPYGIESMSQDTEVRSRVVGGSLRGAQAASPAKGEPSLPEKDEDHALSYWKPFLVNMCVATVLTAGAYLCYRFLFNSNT
Test compounds were dissolved in DMSO, and 10-point serial 3-fold dilution series in DMSO were prepared in Echo Qualified 384-well Polypropylene Microplates (Labcyte, San Jose, CA) (top concentration 50 µM). […] 5 μl of assay buffer was added into the low control. The plate was incubated for 30 minutes at room temperature. Subsequently, 5 μl of 100 µM DiFMUP (6,8-difluoro-4-methylumbelliferyl phosphate) solution (prepared in assay buffer from 10 mM stock in DMSO) was added to the assay plate and incubated for 1 hour at room temperature. For detection, assay plates were read on SpectraMax Microplate Reader (Molecular Devices), with Excitation wavelength=360 nm and Emission wavelength=460 nm. […] Calculated % effects were fit using a 4-parameter algorithm, and EC50 was reported.

Chain of human PTPN2 (1-387) (P17706 other isoform, or with tags, fused parts or gaps): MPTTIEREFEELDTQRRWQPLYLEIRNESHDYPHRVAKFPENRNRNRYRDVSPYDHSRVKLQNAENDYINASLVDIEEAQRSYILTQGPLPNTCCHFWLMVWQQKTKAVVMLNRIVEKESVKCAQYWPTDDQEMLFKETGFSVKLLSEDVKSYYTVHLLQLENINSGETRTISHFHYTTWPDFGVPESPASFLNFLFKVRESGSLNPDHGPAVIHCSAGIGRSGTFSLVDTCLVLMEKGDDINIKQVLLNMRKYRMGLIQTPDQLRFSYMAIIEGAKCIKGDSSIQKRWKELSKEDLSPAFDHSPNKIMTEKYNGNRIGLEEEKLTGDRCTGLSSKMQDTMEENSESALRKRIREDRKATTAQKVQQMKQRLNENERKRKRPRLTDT

What is called IC50 is the concentration that gives 50% inhibition. As for `O=C(NCc1cc[nH]n1)c1ccc2sc(C(F)(F)P(=O)(O)O)c(Br)c2c1` [Compound 202], the results for the IC50 against human PTPN2 (1-387) and at human PTPN1 (1-435) were 3.65 µM and 2.32 µM, respectively.

As to `NC(=O)c1cc(OCc2ccc(F)cc2C(F)(F)F)c2sc(C(F)(F)P(=O)(O)O)c(Br)c2c1` [Compound 336], the figures for the IC50 at human PTPN2 (1-387) and at human PTPN1 (1-435) were 0.0886 µM and 0.16 µM, respectively.

`CS(=N)(=O)c1cc(OCCCC(F)(F)F)c2sc(C(F)(F)P(=O)(O)O)c(Br)c2c1` (stereo not drawn) [Compound 413]: the results for the IC50 on human PTPN2 (1-387) and on human PTPN1 (1-435) were 7.4 µM and 4.08 µM, respectively.

Take `O=C(NCc1cccnn1)c1cc(OCCCc2cccnc2)c2sc(C(F)(F)P(=O)(O)O)c(Br)c2c1` [Compound 266]: the IC50 was 0.0129 µM at human PTPN2 (1-387) and 0.0174 µM on human PTPN1 (1-435).

On to `CS(=N)(=O)c1cc(OCCCC(F)(F)F)c2sc(C(F)(F)P(=O)(O)O)c(Br)c2c1` (stereo not drawn) [Compound 414], for which the figures for the IC50 against human PTPN2 (1-387) and at human PTPN1 (1-435) were 6.7 µM and 3.59 µM, respectively.

With `O=C(NCc1cncc(C(F)(F)F)c1)c1ccc2sc(C(F)(F)P(=O)(O)O)c(Br)c2c1` [Compound 30], the values for the IC50 against human PTPN2 (1-387) and on human PTPN1 (1-435) were 2.09 µM and 1.84 µM, respectively.

As for `COc1ccc(CCC(C)NC(=O)c2ccc3sc(C(F)(F)P(=O)(O)O)c(Br)c3c2)cc1` (stereo not drawn) [Compound 87], the IC50 stood at 3.3 µM on human PTPN2 (1-387) and 7.09 µM at human PTPN1 (1-435).

In the case of `Cc1c[nH]c(CNC(=O)c2ccc3sc(C(F)(F)P(=O)(O)O)c(Br)c3c2)c(C)c1=O` [Compound 129], the figures for the IC50 on human PTPN2 (1-387) and at human PTPN1 (1-435) were 2.65 µM and 2.23 µM, respectively.

Take `NC(=O)c1cc(OCc2ccc(C3CCN(CC(F)(F)F)CC3)cc2)c2sc(C(F)(F)P(=O)(O)O)c(Br)c2c1` [Compound 350]: the figures for the half-inhibitory concentration (IC50) against human PTPN2 (1-387) and at human PTPN1 (1-435) were 0.159 µM and 0.406 µM, respectively.

In the case of `CN(C)S(=O)(=O)CCCOc1cc(C(N)=O)cc2c(Br)c(C(F)(F)P(=O)(O)O)sc12` [Compound 374], the IC50 against human PTPN2 (1-387) worked out at 0.014 µM; on human PTPN1 (1-435) it was 0.0125 µM.

`O=C(NC1CCCN(Cc2ccccc2F)C1)c1ccc2sc(C(F)(F)P(=O)(O)O)c(Br)c2c1` (stereo not drawn) [Compound 68]: the results for the IC50 against human PTPN2 (1-387) and at human PTPN1 (1-435) were 4.24 µM and 3.77 µM, respectively.

With `O=C(NCCC1CCCCC1)c1ccc2sc(C(F)(F)P(=O)(O)O)c(Br)c2c1` [Compound 53], the IC50 was determined as 4.11 µM against human PTPN2 (1-387) and 3.24 µM on human PTPN1 (1-435).

In the case of `O=P(O)(O)C(F)(F)c1sc2c(OCCCC(F)(F)F)cc(-c3ccn[nH]3)cc2c1Br` [Compound 260, ((3-bromo-5-(1H-pyrazol-5-yl)-7-(4,4,4-trifluorobutoxy)benzo[b]thiophen-2-yl)difluoromethyl)phosphonic acid], the IC50 turned out to be 0.0157 µM against human PTPN2 (1-387) and 0.0114 µM on human PTPN1 (1-435).

Turning to `NC(=O)c1cc(OCCOCC(F)F)c2sc(C(F)(F)P(=O)(O)O)c(Br)c2c1` [Compound 251], the figures for the IC50 against human PTPN2 (1-387) and at human PTPN1 (1-435) were 0.271 µM and 0.423 µM, respectively.

With `CNC(=O)c1cc(OCCCNS(C)(=O)=O)c2sc(C(F)(F)P(=O)(O)O)c(Br)c2c1` [Compound 323], the IC50 against human PTPN2 (1-387) was determined as 0.0554 µM; on human PTPN1 (1-435), 0.044 µM.

Take `C[C@@H](NC(=O)c1cc(OCCCC(F)(F)F)c2sc(C(F)(F)P(=O)(O)O)c(Br)c2c1)c1cccnn1` [Compound 208]: the IC50 against human PTPN2 (1-387) turned out to be 0.00696 µM; on human PTPN1 (1-435), 0.0075 µM.

Consider `NC(=O)c1cc(OCc2ccc([C@H]3CC[C@H](C(F)(F)F)CC3)cc2)c2sc(C(F)(F)P(=O)(O)O)c(Br)c2c1` [Compound 400], for which the IC50 against human PTPN2 (1-387) was 0.214 µM; at human PTPN1 (1-435) it was 0.736 µM.

Take `O=C(N[C@H]1Cc2ccc(F)cc21)c1ccc2sc(C(F)(F)P(=O)(O)O)c(Br)c2c1` [Compound 15]: the IC50 at human PTPN2 (1-387) was 6.16 µM; at human PTPN1 (1-435), 5.62 µM.

With `O=C(NCCn1ccnn1)c1ccc2sc(C(F)(F)P(=O)(O)O)c(Br)c2c1` [Compound 147], the IC50 at human PTPN2 (1-387) was 5.66 µM; at human PTPN1 (1-435), 3.19 µM.

Turning to `C[C@@H](NC(=O)c1ccc2sc(C(F)(F)P(=O)(O)O)c(Br)c2c1)c1ccnn1C` [Compound 176], the concentration for half-maximal inhibition (IC50) turned out to be 4.72 µM on human PTPN2 (1-387) and 2.68 µM on human PTPN1 (1-435).

Consider `O=C(NC1CC1(F)F)c1cc(OCCCC(F)(F)F)c2sc(C(F)(F)P(=O)(O)O)c(Br)c2c1` (stereo not drawn) [Compound 207], for which the IC50 came to 0.00979 µM at human PTPN2 (1-387) and 0.0116 µM at human PTPN1 (1-435).

In the case of `NC(=O)c1cc(OCc2ccc(C(F)(F)F)c(F)c2)c2sc(C(F)(F)P(=O)(O)O)c(Br)c2c1` [Compound 357], the values for the IC50 at human PTPN2 (1-387) and at human PTPN1 (1-435) were 0.0137 µM and 0.0217 µM, respectively.

Consider `CC(NC(=O)c1ccc2sc(C(F)(F)P(=O)(O)O)c(Br)c2c1)c1ccccc1-n1cccn1` (stereo not drawn) [Compound 113], for which the figures for the IC50 on human PTPN2 (1-387) and on human PTPN1 (1-435) were 4.17 µM and 4.08 µM, respectively.

With `O=P(O)(O)C(F)(F)c1sc2cc(Br)ccc2c1Br` [Compound 298, ((3,6-dibromobenzo[b]thiophen-2-yl)difluoromethyl)phosphonic acid], the half-maximal inhibitory concentration (IC50) at human PTPN2 (1-387) came out at 21.6 µM; at human PTPN1 (1-435) it was 11.7 µM.

With `CC(NC(=O)c1ccc2sc(C(F)(F)P(=O)(O)O)c(Br)c2c1)c1ccc2c(c1)OCCO2` (stereo not drawn) [Compound 80], the IC50 at human PTPN2 (1-387) stood at 1.89 µM; at human PTPN1 (1-435) it was 2.13 µM.

As to `N#Cc1ccc2c(Br)c(C(F)(F)P(=O)(O)O)sc2c1` [Compound 299, ((3-bromo-6-cyanobenzo[b]thiophen-2-yl)difluoromethyl)phosphonic acid], the IC50 at human PTPN2 (1-387) came out at 17.1 µM; on human PTPN1 (1-435), 8.98 µM.

For `O=C(NCc1c[nH]nn1)c1cc(OCCCC(F)(F)F)c2sc(C(F)(F)P(=O)(O)O)c(Br)c2c1` [Compound 209], the IC50 at human PTPN2 (1-387) turned out to be 0.00463 µM; on human PTPN1 (1-435), 0.0065 µM.

Take `CS(=O)(=O)CCCOc1cc(C(N)=O)cc2c(C(F)(F)F)c(C(F)(F)P(=O)(O)O)sc12` [Compound 445, ((5-carbamoyl-7-(3-(methylsulfonyl)propoxy)-3-(trifluoromethyl)benzo[b]thiophen-2-yl)difluoromethyl)phosphonic acid]: the IC50 against human PTPN2 (1-387) was 0.0155 µM; on human PTPN1 (1-435), 0.0127 µM.

In the case of `C[C@@H](NC(=O)c1ccc2sc(C(F)(F)P(=O)(O)O)c(Br)c2c1)c1cccnc1` [Compound 199], the IC50 turned out to be 1.71 µM against human PTPN2 (1-387) and 1.19 µM on human PTPN1 (1-435).

Take `O=C(Nc1ccccc1)c1ccc2sc(C(F)(F)P(=O)(O)O)c(C(F)F)c2c1` [Compound 216, ((3-(difluoromethyl)-5-(phenylcarbamoyl)benzo[b]thiophen-2-yl)difluoromethyl)phosphonic acid]: the IC50 at human PTPN2 (1-387) came to 5.76 µM; at human PTPN1 (1-435) it was 6.41 µM.

Take `NC(=O)c1cc(OCc2ccc(C(F)(F)F)cc2C(F)(F)F)c2sc(C(F)(F)P(=O)(O)O)c(Br)c2c1` [Compound 340]: the IC50 at human PTPN2 (1-387) was determined as 0.116 µM; on human PTPN1 (1-435), 0.283 µM.

Regarding `CS(=O)(=O)c1ccc(COc2cc(-c3nc[nH]n3)cc3c(Br)c(C(F)(F)P(=O)(O)O)sc23)cc1` [Compound 444], the IC50 at human PTPN2 (1-387) and on human PTPN1 (1-435) was below 0.0025 µM in each case.

As for `NC(=O)c1cc(OCC2CC3(CCC3)C2)c2sc(C(F)(F)P(=O)(O)O)c(Br)c2c1` [Compound 284], the IC50 was determined as 0.0645 µM at human PTPN2 (1-387) and 0.042 µM on human PTPN1 (1-435).

In the case of `CC(=O)N1CCc2ccc(NC(=O)c3ccc4sc(C(F)(F)P(=O)(O)O)c(Br)c4c3)cc21` [Compound 77], the IC50 is 1.11 µM at human PTPN2 (1-387) and 0.73 µM at human PTPN1 (1-435).

At human PTPN2 (1-387), `O=C(NCc1cccnn1)c1ccc2sc(C(F)(F)P(=O)(O)O)c(Br)c2c1` [Compound 31] returned an IC50 of 1.47 µM.

`Cc1nnc(-c2cc(OCCCC(F)(F)F)c3sc(C(F)(F)P(=O)(O)O)c(Br)c3c2)[nH]1` [Compound 417, ((3-bromo-5-(5-methyl-4H-1,2,4-triazol-3-yl)-7-(4,4,4-trifluorobutoxy)benzo[b]thiophen-2-yl)difluoromethyl)phosphonic acid] yielded an IC50 against human PTPN2 (1-387) of 0.00908 µM.

`CNC(=O)COc1cc(C(N)=O)cc2c(Br)c(C(F)(F)P(=O)(O)O)sc12` [Compound 246]: the IC50 on human PTPN2 (1-387) is 1.17 µM.

At human PTPN2 (1-387), `CC(C)(O)CCOc1cc(C(=O)NCc2cccnn2)cc2c(Br)c(C(F)(F)P(=O)(O)O)sc12` [Compound 169] registered an IC50 of 0.133 µM.

Molecule `NC(=O)c1cc(CCCCC(F)(F)F)c2sc(C(F)(F)P(=O)(O)O)c(Br)c2c1` [Compound 296, ((3-bromo-5-carbamoyl-7-(5,5,5-trifluoropentyl)benzo[b]thiophen-2-yl)difluoromethyl)phosphonic acid] yielded an IC50 against human PTPN2 (1-387) of 0.241 µM.

Molecule `CCCCSc1cc(C(N)=O)cc2c(Br)c(C(F)(F)P(=O)(O)O)sc12` [Compound 309] gave an IC50 against human PTPN2 (1-387) of 0.335 µM.

On human PTPN2 (1-387), `O=P(O)(O)C(F)(F)c1sc2c(OCCCC(F)(F)F)cc(O)cc2c1Br` [Compound 419, ((3-bromo-5-hydroxy-7-(4,4,4-trifluorobutoxy)benzo[b]thiophen-2-yl)difluoromethyl)phosphonic acid] showed an IC50 of 0.345 µM.
